{"source": "patent US20240131032A1", "about": "“AN ACTIVITY-GUIDED MAP OF ELECTROPHILE-CYSTEINE INTERACTIONS IN PRIMARY HUMAN IMMUNE CELLS” (The Scripps Research Institute, priority 2019, published 2024)", "key": {"TMEM173 [1]": {"target": "T1, TMEM173 (Homo sapiens, UniProt Q86WV6)", "T1 construct": "endogenous in cells; host or cells: primary human T cells", "T1 sequence (Q86WV6 whole entry H232R)": "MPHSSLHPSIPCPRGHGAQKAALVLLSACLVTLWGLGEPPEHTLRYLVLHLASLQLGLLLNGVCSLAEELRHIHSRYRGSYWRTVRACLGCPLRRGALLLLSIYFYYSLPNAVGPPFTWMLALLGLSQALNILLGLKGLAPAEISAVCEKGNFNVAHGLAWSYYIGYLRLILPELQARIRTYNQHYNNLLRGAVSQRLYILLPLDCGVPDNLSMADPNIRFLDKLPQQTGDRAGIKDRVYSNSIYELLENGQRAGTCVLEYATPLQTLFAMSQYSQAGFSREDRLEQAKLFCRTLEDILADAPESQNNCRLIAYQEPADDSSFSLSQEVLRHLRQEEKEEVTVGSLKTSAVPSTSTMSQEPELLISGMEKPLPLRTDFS", "assay": "TMEM173/STING pathway activation by cGAMP in PBMCs (qPCR, ELISA, Bio-Plex)", "assay_type": "cell-based", "details": "BPK-25 10 μM", "protocol": "(§1) FIG. 12A is a pie chart showing the fraction of protein targets of active compounds with available crystal structures containing the corresponding liganded cysteine residues. FIG. 12B is a computer-generated model of BPK-21 and BPK-25 interactions with C91 of stimulator of interferon genes protein (STING, or TMEM173). FIG. 12C is a graph of IRF response of THP1-Lucia™ ISG cells. THP-1 Lucia ISG cells were treated with DMSO or BPK-25 in the presence of viral dsDNA (2 μg/mL) for 24 h and the levels of IRF-induced Lucia luciferase were determined using QUANTI-Luc™. Cell viability was measured using CellTiter-Glo™ assay. Luminescence signals for test samples were normalized to DMSO-treated samples and reported as relative light units (RLU)±SEM; n=3/group. […] Relative expression of IL-6, IL-1β, and IP10 (CXCL10) genes was measured by qPCR and normalized to actin. […] GFP-positive cells were further analyzed for CD25 and CD69 expression levels by measuring mean fluorescence intensity of the PE- (PE-CD25) and APC-channels (APC-CD69). […]\nFreshly isolated PBMCs (4×10^6 cells/mL, 1 mL/well), were treated with BPK-25 (10 μM) or vehicle (DMSO) for 6 h in a 24-well plate, after which cGAMP (10 μM) was added to the wells and the cells were incubated for additional 20 h. […] When run on the Bioplex 200 system, […] of supernatant was mixed with 50 μL of beads and quantified against human cytokines standard curves. […]"}, "TMEM173 [2]": {"target": "T2, TMEM173 (Homo sapiens, UniProt Q86WV6, G230A/H232R/R293Q/R71H)", "T2 construct": "endogenous in cells; host or cells: THP-1 Lucia ISG cells", "T2 sequence (Q86WV6 whole entry R71H/G230A/H232R/R293Q)": "as the sequence (Q86WV6 whole entry H232R) above, with R71H, G230A, R293Q counted along it", "assay": "ISRE-luciferase assay in THP-1 Lucia ISG cells", "assay_type": "cell-based", "details": "24 h", "protocol": "as §1\nTHP-1 Lucia ISG cells were resuspended in low-serum growth media (2% FBS) at a density of 5×10^5 cells/mL and treated with BPK-25 or vehicle (DMSO) in the presence of viral dsDNA (2 μg/mL). […] For each cell type and assay, luminescence signals for test article samples were normalized to vehicle-treated samples and reported as relative light units (RLU)."}, "BIRC3": {"target": "T3, BIRC3 (Homo sapiens, UniProt Q13489, C28A)", "T3 construct": "endogenous in cells; host or cells: primary human T cells", "T3 sequence (Q13489 whole entry C28A)": "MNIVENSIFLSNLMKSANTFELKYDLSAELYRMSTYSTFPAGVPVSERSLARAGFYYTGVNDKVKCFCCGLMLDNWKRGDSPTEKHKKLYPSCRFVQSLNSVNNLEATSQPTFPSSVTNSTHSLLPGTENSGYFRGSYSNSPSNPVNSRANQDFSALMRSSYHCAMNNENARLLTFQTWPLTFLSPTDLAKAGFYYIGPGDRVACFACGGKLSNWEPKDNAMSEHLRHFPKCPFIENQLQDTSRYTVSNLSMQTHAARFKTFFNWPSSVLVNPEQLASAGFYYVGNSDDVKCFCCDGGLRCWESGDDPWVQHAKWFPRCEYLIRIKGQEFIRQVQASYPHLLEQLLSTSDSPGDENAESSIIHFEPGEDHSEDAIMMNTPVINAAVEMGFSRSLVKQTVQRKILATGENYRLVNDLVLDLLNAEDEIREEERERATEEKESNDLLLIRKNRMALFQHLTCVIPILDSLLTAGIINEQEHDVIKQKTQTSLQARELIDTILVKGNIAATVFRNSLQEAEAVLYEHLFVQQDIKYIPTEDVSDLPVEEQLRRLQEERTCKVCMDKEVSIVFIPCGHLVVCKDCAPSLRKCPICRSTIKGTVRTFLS", "assay": "Western blot of BIRC3 content in human T cells", "assay_type": "cell-based", "details": "EV-3 10 μM, 24 h; transfected primary human T cells"}, "BIRC2 and BIRC3 mRNA": {"tested_on": "BIRC2 and BIRC3 mRNA", "assay": "mRNA content for BIRC2 and BIRC3 in T cells (qPCR)", "assay_type": "cell-based, human", "details": "EV-3 10 μM, 24 h", "protocol": "All treatments were done with T cells for 24 hours.\nTotal RNA from compound or DMSO treated T cells (1.5×10^7 cells/group) was isolated using RNeasy Mini Kit (Qiagen) according to manufacturer's protocol. RNA concentration was determined using NanoDrop and adjusted to 1 μg RNA in 15 μL RNAse free water for the reverse transcription reaction. cDNA amplification was done using iScript Reverse Transcription Supermix kit (BioRad) according to manufacturer's instructions. The following PCR settings were used for the reverse transcription reaction: 5 min at 25° C. (priming), 20 min at 46° C. (Reverse transcription), 1 min at 95° C. (RT inactivation), hold at 4° C. qPCR analysis was performed on ABI Real Time PCR System (Applied Biosystems) with the SYBR green Mastermix (Applied Biosystems). Relative gene expression was normalized to actin."}}, "data": [{"smiles": "C=CC(=O)N(Cc1cccc(Cl)n1)c1ccc(C(=O)Nc2ccccc2)nc1", "note": "[BPK-25]", "values": [{"measurement": "TMEM173 activation by cGAMP in primary human PBMCs", "setting": "TMEM173 [1]", "value": "inhibited TMEM173 activation"}, {"measurement": "TMEM173 activation in human monocyte cell line THP1", "setting": "TMEM173 [2]", "value": "inhibited TMEM173 activation"}]}, {"smiles": "O=C(CCl)N1CCN(S(=O)(=O)c2ccc(-c3ccncc3)cc2)CC1", "note": "[EV-3]", "values": [{"measurement": "FLAG-tagged BIRC3 C28A mutant content", "setting": "BIRC3", "value": "but not cysteine mutants"}, {"measurement": "mRNA content for BIRC2 or BIRC3", "setting": "BIRC2 and BIRC3 mRNA", "value": "minimal changes"}]}]}
